Source: patent publication US20220106328A1, “HETEROCYCLIC COMPOUNDS” (Hoffmann-La Roche Inc., priority 2019, published 2022)

The compounds below were run against T1, MAGL (Homo sapiens, UniProt Q99685) (assay: 2-AG assay (MAGL inhibitory activity; hydrolysis of 2-arachidonoylglycerol to arachidonic acid followed by mass spectrometry)). Settings: 8 μM 2-arachidonoylglycerol, 15 min pre-incubation, 30 min incubation at rt, RapidFire MS read-out.
T1 sequence (Q99685 1-303): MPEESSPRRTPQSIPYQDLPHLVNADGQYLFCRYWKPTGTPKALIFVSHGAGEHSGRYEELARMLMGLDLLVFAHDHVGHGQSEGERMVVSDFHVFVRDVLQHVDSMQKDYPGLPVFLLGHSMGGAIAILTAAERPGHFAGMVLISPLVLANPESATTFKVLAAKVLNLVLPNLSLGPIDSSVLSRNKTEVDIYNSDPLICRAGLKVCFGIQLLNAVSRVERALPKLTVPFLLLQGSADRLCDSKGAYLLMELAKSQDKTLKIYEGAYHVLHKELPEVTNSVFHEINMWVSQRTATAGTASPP
Format: biochemical
Description: Compounds were profiled for MAGL inhibitory activity by determining the enzymatic activity by following the hydrolysis of the natural substrate 2-arachidonoylglycerol resulting in arachidonic acid, which can be followed by mass spectrometry. This assay is hereinafter abbreviated “2-AG assay”.
A C18 SPE cartridge (G9205A) was used in an ACN/water liquid setup. […] The activity of the compounds was calculated based on the ratio of intensities [arachidonic acid/d8-arachidonic acid].

Going from `O=C1CO[C@@H]2CCN(C(=O)N3CC(c4ccc(-c5ccc(F)cc5F)cc4)C3)C[C@H]2N1` (single isomer, unassigned) [Example 13, (+)- or (−)-trans-6-[3-[4-(2,4-Difluorophenyl)phenyl]azetidine-1-carbonyl]-4,4a,5,7,8,8a-hexahydropyrido[4,3-b][1,4]oxazin-3-one] to `O=C1CO[C@H]2CCN(C(=O)N3CC(c4ccc(Oc5ccccc5)cc4)C3)C[C@@H]2N1` (single isomer, unassigned) [Example 12, (−)- or (+)-trans-6-[3-(4-Phenoxyphenyl)azetidine-1-carbonyl]-4,4a,5,7,8,8a-hexahydropyrido[4,3-b][1,4]oxazin-3-one], the IC50 falls from 93 nM to 7 nM (13-fold). The second is the more potent here.

`O=C1CO[C@@H]2CCN(C(=O)N3CC(c4ccc(CC(F)(F)F)cc4)C3)C[C@H]2N1` (single isomer, unassigned) [Example 15, (+)- or (−)-trans-6-[3-[4-(2,2,2-Trifluoroethyl)phenyl]azetidine-1-carbonyl]-4,4a,5,7,8,8a-hexahydropyrido[4,3-b][1,4]oxazin-3-one] and `O=C1COC2CCN(C(=O)N3CC(OCc4ccc(C(F)(F)F)cc4F)C3)CC2N1` (single isomer, unassigned) [Example 5, (+)- or (−)-trans-6-[3-[[2-Fluoro-4-(trifluoromethyl)phenyl]methoxy]azetidine-1-carbonyl]-4,4a,5,7,8,8a-hexahydropyrido[4,3-b][1,4]oxazin-3-one] are within 1.5-fold of each other in IC50: 357 nM for the first, 327 nM for the second.

`O=C1CO[C@H]2CCN(C(=O)N3CCC(C(c4ccc(F)cc4)c4ccc(F)cc4)CC3)C[C@@H]2N1` (single isomer, unassigned) [Example 25, (−)- or (+)-trans-6-[4-[Bis(4-fluorophenyl)methyl]piperidine-1-carbonyl]-4,4a,5,7,8,8a-hexahydropyrido[4,3-b][1,4]oxazin-3-one] showed an IC50 of 5 nM.
